Where a name gives a salt, the structure may show the parent alone.
Assays:
[1] = tested on: GABAA receptors; test: Single-unit recordings in contralateral VLO during 10 Hz thalamocortical stimulation before and after micro-infusion of BMI; format: in vivo, Sprague-Dawley rats
Description: It was next hypothesized that decreases in cortical activity reflect direct GABA-mediated inhibition. The dependence of this response on downstream GABA release was tested by comparing evoked changes in firing rate before and after micro-infusion of bicuculline methiodide (BMI). […] Single-unit recordings were performed in cVLO, where negative fMRI signals were observed during 10 Hz thalamocortical stimulation (FIG. 5A). To ensure that any changes associated with BMI infusion were due to its pharmacological effect, infusions with sterile saline were first performed. To inject both BMI and saline, a pair of cannulas was attached to the recording electrode directly above the electrical contacts (FIG. 5B).
(§1) In vivo electrophysiology was performed to directly measure the neuronal activity of various brain regions during thalamocortical stimulation. As with imaging, anesthesia was maintained with a mixture of 02 (35%), N20 (65%), and −1.5% isoflurane. Throughout the procedure, body temperature was maintained at 37° C. using a thermoresistive heating pad (FHC, Inc., ME, USA). After securing the animal within a stereotactic frame, a 16-channel microelectrode array (NeuroNexus Technologies, MI, USA; A1×16 standard model linear electrode array) was inserted at the desired recording site. For recordings at the site of stimulation and zona incerta, an optical fiber glued to the electrode tip was used to deliver light. Remote recordings were performed at the following coordinates, averaged across animals: contralateral VLO (+4.68 mm AP, −1.90 mm ML, −4.90 mm DV), ipsilateral motor cortex (+3.24 mm AP, +2.43 mm ML, −3.00 mm DV), ipsilateral reticular nucleus (−1.86 mm AP, +2.20 mm ML, −6.93 mm DV), contralateral reticular nucleus (−1.92 mm AP, −2.10 mm ML, −7.17 mm DV), and ipsilateral zona incerta (−4.00 mm AP, +3.10 mm ML, −7.13 mm DV). Light was delivered to the fiber-optic implant at VLO via a 473 nm laser source calibrated to 5 mW power delivery. In one animal, a higher power level was used (no more than −2×) to account for a fiber implanted in a relatively dorsal position in VLO. For the optrode positioned in zona incerta, a […] diameter optical fiber was used to deliver continuous light from a 589 nm laser source (LaserGlow Technologies) calibrated to 5 mW at the implanted fiber's tip. Recordings were performed for 20 s without stimulation, followed by repeated stimulation cycles (20 s on, 40 s off) at 10 or 40 Hz with a 30% duty cycle. To assess the role of zona incerta, 10 Hz stimulation trials were interleaved with 30 s periods of simultaneous eNpHR activation beginning 5 s prior to 10 Hz stimulation (FIG. 7B).
(§2) Pharmacological infusions were performed during in vivo electrophysiology (same procedure as described above) with bicuculline methiodide (BMI; 0.6 mg/ml; Sigma-Aldrich #14343), lidocaine hydrochloride (2%; Fresenius Kabi, IL, USA; #491507), or sterile saline as a control. Solutions were delivered at a rate of 250 nL/min via two polyethylene cannulas (0.011/0.024″ ID/OD; A-M Systems, WA, USA)—one for saline and one for the active pharmacological agent—glued to the tip of a recording electrode, directly above the topmost recording contact. Cannula tips were beveled to ensure that injected solutions were released in the direction of the electrode.
(§3) Infusions of saline and BMI (500 nL) were performed in the contralateral VLO while recording directly below the site of infusion (FIG. 5B). For each solution, twenty 10 Hz stimulation/recording trials were performed before infusion onset, and twenty more trials were performed immediately after infusion. Saline was delivered first, followed by BMI. To assess the role of zona incerta, saline and lidocaine (500-1000 nL) were delivered to the ipsilateral zona incerta while recording in the contralateral VLO. […]

[2] = tested on: zona incerta; test: Single-unit recordings in contralateral VLO during 10 Hz thalamocortical stimulation after lidocaine infusion in zona incerta; format: in vivo, Sprague-Dawley rats
Description: ZI activity was first inactivated via incertal infusions of the sodium channel blocker lidocaine hydrochloride (FIG. 6A and FIGS. 14A-14B). […] In contrast, only 72% of units were inhibited during 10 Hz stimulation after inactivation of zona incerta with lidocaine (FIG. 6B).
as §1, §2, §3

[3] = cVLO baseline (pre-stimulation) firing rate

Row | SMILES | stimulus-evoked change in firing rate of a representative cVLO unit ([1]; 10 Hz stimulation after BMI infusion, p=0.63) | effect on stimulus-evoked inhibition in cVLO ([1]; 10 Hz thalamocortical stimulation, after BMI infusion) | time course of the reduction in stimulus-evoked inhibition ([1]; after BMI infusion, twenty 10 Hz trials) | units whose baseline firing rate decreased following BMI infusion [1, 3] [%] | units whose baseline firing rate increased following BMI infusion [1, 3] [%] | recorded units not modulated by stimulation after BMI infusion ([1]; cVLO units, 10 Hz thalamocortical stimulation, after 500 nL BMI (0.6 mg/ml) infusion in cVLO, 49 units, 2 animals, 20 trials per condition) [%] | recorded units exhibiting a significant increase in firing rate during stimulation after BMI infusion ([1]; cVLO units, 10 Hz thalamocortical stimulation, after BMI infusion) [%] | average baseline firing rate across all units after BMI infusion ([1]; cVLO, p=0.66) | stimulus-evoked change in firing rate of a representative cVLO unit ([2]; 10 Hz stimulation after lidocaine infusion, p=0.31) | time course of the reduction in evoked inhibition ([2]; after lidocaine infusion in zona incerta, twenty 10 Hz trials) | units inhibited during 10 Hz stimulation after inactivation of zona incerta ([2]; cVLO units, lidocaine (2%, 500-1000 nL) infused in ipsilateral zona incerta, N=62 units, 20 trials per condition) [%] | stimulus-evoked changes in firing rate versus baseline and post-saline values ([2]; cVLO, post-hoc tests, p=9.6×10^−10 and 3.0×10^−7) | effect on remote cortical inhibition driven by 10 Hz stimulation in a subset of recorded units ([2]; incertal infusion, representative cVLO unit)
1 | C[N+]1(C)CCc2cc3c(cc2[C@H]1[C@@H]1OC(=O)c2c1ccc1c2OCO1)OCO3.[I-] [BMI, bicuculline methiodide] | no longer causes a significant change in firing rate | completely eliminated the stimulus-evoked inhibition | took immediate effect after BMI infusion and continued throughout the following twenty trials | 18 | 27 | 96 | 4 | not significantly different | – | – | – | – | –
2 | CCN(CC)CC(=O)Nc1c(C)cccc1C [lidocaine, lidocaine hydrochloride] | – | – | – | – | – | – | – | – | no longer exhibits a significant change in firing rate | took immediate effect after lidocaine infusion and persisted throughout the following twenty trials | 72 | different than both baseline and post-saline values | completely eliminated the remote cortical inhibition
